Measurements reported in BindingDB's records for patent US10166249 (Bristol-Myers Squibb, 2019).

Biological target: Sphingosine 1-phosphate receptor 1 (Homo sapiens, UniProt P21453)
Assay: hS1P1 ERK Phosphorylation (S1P1 pERK)
Procedure: hS1P1/CHO cells were plated into BD Amine 384-well plates the day before the assay. On the day of the assay, growth medium was removed and replaced with serum-free medium (Ham's F-12 Invitrogen) and incubated for 2 hours. Test compounds pre-diluted in HBSS (Gibco)/20 mM HEPES (Gibco) were transferred to the cell plates and incubated for 7 minutes at 37° C. Cells were lysed in lysis buffer (Perkin Elmer) and phospho-ERK was measured using the SureFire pERK kit (Perkin Elmer) as described by the manufacturer. Data was plotted as percentage activation of the test compound relative to the efficacy of 10 μM S1P.

Chain of Sphingosine 1-phosphate receptor 1 (P21453 whole entry): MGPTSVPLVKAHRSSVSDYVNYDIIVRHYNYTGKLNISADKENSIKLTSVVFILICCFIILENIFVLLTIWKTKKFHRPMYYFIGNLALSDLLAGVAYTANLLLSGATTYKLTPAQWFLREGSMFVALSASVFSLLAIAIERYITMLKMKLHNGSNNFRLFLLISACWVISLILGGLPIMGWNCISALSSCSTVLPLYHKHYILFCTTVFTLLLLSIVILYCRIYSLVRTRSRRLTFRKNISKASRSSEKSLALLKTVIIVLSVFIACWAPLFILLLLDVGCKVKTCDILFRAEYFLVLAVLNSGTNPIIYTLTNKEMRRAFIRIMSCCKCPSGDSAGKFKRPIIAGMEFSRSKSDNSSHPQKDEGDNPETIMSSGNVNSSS

EC50: < 10 nM
SMILES: CCSCC[C@H]1CCc2cc([C@H]3CC[C@](N)(COP(=O)(O)O)C3)ccc2C1 [US10166249, Example 532]
